PMC11855207, “Synthesis and Evaluation of Aromatic A-Ring 23-Oxavitamin D3 Analogues as Hedgehog Pathway Inhibitors” (International Journal of Molecular Sciences, 2025)

Experiments:
[1] = test system: Cyp24A1 mRNA in SuFu−/− C3H10T1/2 cells; test: Cyp24A1 up-regulation in SuFu−/− C3H10T1/2 cells; assay type: cell-based, mouse; conditions: 24 h
[2] = test system: Cyp24A1 mRNA in VDR−/− C3H10T1/2 cells; test: Cyp24A1 up-regulation in VDR−/− C3H10T1/2 cells; assay type: cell-based, mouse; conditions: 24 h
full-length human Smo = molecular target: T1, full-length human Smo (Homo sapiens, UniProt Q99835); test: BODIPY-Cyc displacement (flow cytometry) in HEK293T cells overexpressing Smo; assay type: binding; conditions: up to 10 μM
T1 construct: HEK293T cells overexpressing full-length human Smo was evaluated; expressed in transfected cells; host or cells: HEK293T

[3] = test system: primary Ptch-CKO MB cells; test: Anti-proliferation (MTS) in primary Ptch-CKO MB cells; assay type: cell-based; conditions: Mus musculus, 48 h incubation, mean ± SEM
Description: Ptch-CKO MB cells, derived from a conditional Patched knockout mouse, lack Ptch-like ASZ001 cells. Consequently, the inhibitory effect of the compound on Ptch-CKO MB cells directly reflects its suppression of the canonical Hh signaling pathway. Cell viability was assessed by MTS proliferation assay kit (Promega, Madison, WI, USA) according to the manufacturer’s protocol. Culture conditions and experimental protocols to determine GI50 values in the primary murine Ptch-CKO MB cells were as previously described.

recombinant VDR = molecular target: T2, recombinant VDR (Homo sapiens, UniProt P11473); test: VDR binding, fluorescence polarization-based competition assay (PolarScreen VDR Competitor Assay Red); conditions: compounds evaluated at 100 μM
T2 construct: purchased Thermo Fisher Scientific
T2 sequence (P11473 1-427): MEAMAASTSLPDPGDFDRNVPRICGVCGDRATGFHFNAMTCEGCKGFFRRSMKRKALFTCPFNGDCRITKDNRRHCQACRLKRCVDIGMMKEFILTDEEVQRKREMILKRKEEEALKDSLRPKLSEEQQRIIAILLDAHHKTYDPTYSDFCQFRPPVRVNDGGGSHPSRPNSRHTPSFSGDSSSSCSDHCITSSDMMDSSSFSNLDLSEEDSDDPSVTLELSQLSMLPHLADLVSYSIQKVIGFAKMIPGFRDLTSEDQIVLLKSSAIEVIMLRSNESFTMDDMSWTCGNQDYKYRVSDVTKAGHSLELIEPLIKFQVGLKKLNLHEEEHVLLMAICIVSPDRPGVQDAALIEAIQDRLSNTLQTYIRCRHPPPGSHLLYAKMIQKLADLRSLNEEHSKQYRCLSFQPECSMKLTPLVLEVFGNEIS
Description: (§1) The VD3 analogues were initially assessed for their ability to inhibit the Hh signaling pathway by evaluating the effects on endogenous Gli1 mRNA levels at a single concentration (5 μM) co-administration of oxysterols (OHCs; 20(S)-hydroxycholesterol, 22(S)-hydroxycholesterol at 5 μM each) in C3H10T1/2 cells, an Hh-dependent mouse embryonic fibroblast (MEF) cell line. […] VD3 derivatives may retain some VDR agonistic activity, thereby compromising the selectivity of these compounds as Hh inhibitors. The selectivity profile of the analogues for Hh inhibition, compared to typical VDR activation, was assessed by measuring the ability to up-regulate Cyp24a1 mRNA levels in the same cellular system and by evaluating their binding to VDR using a fluorescence polarization-based competition assay (Table 1).
VDR binding assay was performed using a PolarScreen VDR Competitor Assay Red kit (Thermo Fisher Scientific, Carlsbad, CA, USA) per the manufacturer’s instructions. Compounds were evaluated at 100 μM in 2.5% final DMSO in triplicate. Calcitriol is utilized as a positive control for VDR binding.

[4] = test system: Hh signaling (Gli1 mRNA) in SuFu−/− C3H10T1/2 cells; test: Gli1 down-regulation in SuFu−/− C3H10T1/2 cells; assay type: cell-based, mouse; conditions: 24 h
[5] = test system: VDR signaling (Cyp24A1 mRNA) in C3H10T1/2 cells; test: Cyp24A1 mRNA up-regulation (qPCR) in C3H10T1/2 cells; assay type: cell-based, mouse; conditions: Mus musculus, C3H 10T1/2, 5 μM with OHCs 5 μM, 24 h, relative to DMSO (set to 1.0)
Description: as §1
(§2) Mouse embryonic fibroblast cell line (C3H10T1/2, wild-type, VDR^−/−, SuFu^−/−), mouse keratinocyte cell line (ASZ001), and human embryonic kidney cell line (HEK293T) were purchased from China Center for Type Culture Collection (CCTCC; Wuhan, Hubei, China) and cultured under standard protocols. […] Therefore, they can be used to assess the inhibitory strength of the Hh signaling and the selectivity of the VDR signaling. VDR^−/− and SuFu^−/− C3H10T1/2 cells were used to study compounds selectivity for Hh and VDR signaling. If compounds regulate Hh signaling independently of VDR, their ability to down-regulate Gli1 mRNA expression should be abolished in SuFu^−/− C3H10T1/2 cells. […] The loss of Ptch in ASZ001 cells […], so down-regulating Gli1 reflects direct Smo inhibition by the compound. Comparing results from ASZ001 and C3H10T1/2 cells highlights the compound’s inhibition of the Hh signaling pathway.
(§3) RNA isolation in C3H10T1/2 cells was performed in 24-well plates (50,000 cells plated; TRIZOL Reagent); in ASZ001, cells were done in 35 mm dishes (300,000 cells plated; TRIZOL Reagent). cDNA synthesis was performed utilizing the SweScript All-in-One RT SuperMix Kit (Servicebio, Wuhan, China) per the manufacturer’s instructions on a BioRad S1000 Thermal Cycler (Hercules, CA, USA). qPCR (Hh signaling pathway and VDR) analysis of target genes was performed on Step OnePlus (ABI) using the Taqman Gene Expression Assays: mouse ActB (Mm00607939_s1), mouse GLI1 (Mm00494645_ml), mouse PTCH1(Mm00436026_m1), and mouse CYP24A1 (Mm00487244_ml). Relative gene expression levels were computed via the ΔΔCt method. ActinB mRNA expression levels of all samples were normalized to DMSO control ActinB mRNA levels (vehicle; set at 1.00). […] The mRNA expression levels from drug-treated samples were compared to OHCs levels (Gli1, PTCH) and DMSO control (Cyp24A1).

[6] = test system: Hh signaling pathway (Gli1 mRNA) in C3H10T1/2 cells; test: Gli1 mRNA down-regulation (qPCR) in OHC-stimulated C3H10T1/2 cells; assay type: cell-based, mouse; conditions: Mus musculus; for mrna remaining at 5 µM: C3H 10T1/2, 5 μM with OHCs 5 μM, 24 h, relative Gli1 mRNA levels compared to OHCs (set to 100%); for IC50: C3H 10T1/2, mean ± SEM
Description: as §1, §2, §3

[7] = test system: Hh signaling pathway (Ptch mRNA) in C3H10T1/2 cells; test: Ptch mRNA down-regulation (qPCR) in C3H10T1/2 cells; assay type: cell-based; conditions: Mus musculus, C3H 10T1/2; C3H10T1/2 cells; mean ± SEM; read-out: Ptch IC50
Hh signaling pathway = test: Anti-Hh activity in combination with vismodegib; assay type: cell-based; conditions: combined with vismodegib 100 nM
[8] = test system: Hh signaling (Gli1 mRNA) in VDR−/− C3H10T1/2 cells; test: Gli1 down-regulation in VDR−/− C3H10T1/2 cells; assay type: cell-based, mouse; conditions: 24 h
ASZ001 cells = test: Anti-proliferation (MTS) in ASZ001 cells; assay type: cell-based; conditions: Mus musculus, 48 h incubation, mean ± SEM
[9] = test system: Hh signaling pathway (Gli1 mRNA) in ASZ001 cells; test: Gli1 mRNA down-regulation (qPCR) in ASZ001 cells; assay type: cell-based; conditions: Mus musculus; ASZ001 cells; mean ± SEM; read-out: Gli1 IC50
[10] = test system: VDR signaling (Cyp24A1 mRNA) in ASZ001 cells; test: Cyp24A1 mRNA expression (qPCR) in ASZ001 cells; assay type: cell-based; conditions: Mus musculus; ASZ001 cells; 5 μM, 24 h; DMSO set to 1.0; read-out: Cyp24A1 mRNA levels relative to DMSO
Smo protein = molecular target: T3, Smo protein (Homo sapiens, UniProt Q99835); test: Surface plasmon resonance (SPR) binding to Smo; conditions: 2.5, 5, 10 μM in PBS, 4 °C
T3 construct: purchased ACRO Biosystems SMO-H52P3
Description: Surface plasmon resonance (SPR) was used to evaluate the binding capacity of the compounds 3j and 4i to Smo. […] To investigate the binding sites of the analogues on Smo, the ability of 3j and 4i to displace BODIPY-Cyc from HEK293T cells overexpressing full-length human Smo was evaluated. […] Smo contains two small molecule binding sites, one located in the extracellular cysteine-rich domain (CRD) and the other in the 7-transmembrane helix (7-TM) region. […] Endogenous oxidized sterols can regulate Smo activity by binding CRD [27]. These analogues, as mimetics of steroid hormones, may interact with Smo by binding to CRD.
SPR analysis was conducted as described in papers. The analyses of interactions between Smo protein (ACRO Biosystems, SMO-H52P3, Newark, DE, USA) and compounds at different concentrations (2.5, 5, 10 μM) was performed in PBS and a flow rate of 2 μL/s at 4 °C. The sensor chip surface was regenerated by injection of 0.5% SDS: Glycine-HCl (pH = 2.0) = 1:1 solution.

T1 sequence (Q99835 28-787): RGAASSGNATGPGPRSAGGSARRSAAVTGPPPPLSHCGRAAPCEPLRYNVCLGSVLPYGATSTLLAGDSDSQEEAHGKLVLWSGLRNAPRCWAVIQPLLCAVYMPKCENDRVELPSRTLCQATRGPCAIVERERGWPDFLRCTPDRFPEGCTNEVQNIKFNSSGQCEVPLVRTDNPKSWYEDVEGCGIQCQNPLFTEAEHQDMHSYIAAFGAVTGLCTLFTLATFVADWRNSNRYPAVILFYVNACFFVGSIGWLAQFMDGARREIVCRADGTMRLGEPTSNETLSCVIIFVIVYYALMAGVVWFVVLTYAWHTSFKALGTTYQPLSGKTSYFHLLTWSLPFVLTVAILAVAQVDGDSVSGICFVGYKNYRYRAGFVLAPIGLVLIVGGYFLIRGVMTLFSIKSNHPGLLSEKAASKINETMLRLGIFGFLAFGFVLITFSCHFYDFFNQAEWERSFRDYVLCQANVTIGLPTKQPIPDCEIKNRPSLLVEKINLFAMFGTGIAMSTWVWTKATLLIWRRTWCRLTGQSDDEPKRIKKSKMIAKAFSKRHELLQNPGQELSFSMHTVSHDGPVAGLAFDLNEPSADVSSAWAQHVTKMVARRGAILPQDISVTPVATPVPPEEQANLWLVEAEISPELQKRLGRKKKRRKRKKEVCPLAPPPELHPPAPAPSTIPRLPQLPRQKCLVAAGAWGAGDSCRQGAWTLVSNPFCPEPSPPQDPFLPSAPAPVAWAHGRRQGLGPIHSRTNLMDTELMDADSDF
T3 sequence (Q99835 28-787): as above

Compound	Ability to up-regulate Cyp24A1 versus wild-type cells [1]	Ability to up-regulate Cyp24A1 versus wild-type cells [2]	Displacement of BODIPY-Cyc from Smo (full-length human Smo)	GI50 [3]	VDR Binding (recombinant VDR)	Ability to inhibit Hh signaling (Gli1 down-regulation) versus wild-type cells [4]	fold induction at 5 µM [5]	mrna remaining at 5 µM [6]	IC50 [6]	IC50 [7]	Change of IC50 value in combination with vismodegib (Hh signaling pathway)	Ability to inhibit Hh signaling (Gli1 down-regulation) versus wild-type cells [8]	GI50 (ASZ001 cells)	IC50 [9]	fold induction at 5 µM [10]	SPR interaction with Smo (Smo protein)	Displacement of BODIPY-Cyc from Smo (full-length human Smo; listed as Cyc)
CC(C)COC[C@@H](C)[C@H]1CC[C@H]2[C@@H](OC(=O)c3cc(O)cc(O)c3)CCC[C@]12C [Compound 3j]	significantly reduced	significantly reduced	neither 3j nor 4i affected BODIPY-Cyc-Smo binding interactions	6.7 ± 0.8 µM	>100 µM	mostly abolished	11.4 ± 1.3	2.4 ± 0.4%	1.8 ± 0.3 µM	3.6 ± 0.5 µM	did not change the IC50 value	modestly reduced	13.4 ± 1.4 µM	5.5 ± 0.7 µM	2.1 ± 0.3	exhibited interactions with Smo	–
CC1=C2C[C@H]3[C@@H](CC=C4C[C@@H](O)CC[C@@]43C)[C@@H]2CC[C@]12O[C@@H]1C[C@H](C)CN[C@H]1[C@H]2C [Cyclopamine, reference compound]	–	–	displaced BODIPY-Cyc in a concentration-dependent manner	–	–	–	–	–	–	–	–	–	–	–	–	–	displaced BODIPY-Cyc in a dose-dependent manner
CC(C)COC[C@@H](C)[C@H]1CC[C@H]2[C@@H](OC(=O)c3cccc(O)c3)CCC[C@]12C [Compound 3i]	–	–	–	8.1 ± 1.1 µM	>100 µM	–	13.8 ± 1.4	6.1 ± 1.1%	2.3 ± 0.7 µM	5.6 ± 0.6 µM	–	–	> 20 µM	5.2 ± 0.3 µM	2.3 ± 0.2	–	–
CC(C)COC[C@@H](C)[C@H]1CC[C@H]2[C@@H](OC(=O)c3cc(N)cc(N)c3)CCC[C@]12C [Compound 3h]	–	–	–	> 10 µM	>100 µM	–	6.7 ± 0.8	5.6 ± 0.9%	3.2 ± 0.3 µM	7.8 ± 0.6 µM	–	–	> 20 µM	4.7 ± 0.4 µM	5.1 ± 0.3	–	–
COc1ccc(C(=O)O[C@H]2CCC[C@]3(C)[C@@H]([C@H](C)COCC(C)(C)O)CC[C@@H]23)cc1O [Compound 4g]	–	–	–	3.4 ± 0.5 µM	>100 µM	–	83.6 ± 15.6	2.5 ± 0.5%	2.1 ± 0.2 µM	3.8 ± 0.4 µM	–	–	7.8 ± 1.1 µM	3.7 ± 0.7 µM	56.8 ± 5.1	–	–
CS(=O)(=O)c1ccc(C(=O)Nc2ccc(Cl)c(-c3ccccn3)c2)c(Cl)c1 [Vismodegib, reference compound]	–	–	–	0.78 ± 0.1 µM	–	no activity	–	–	–	–	–	–	2.1 µM	–	–	–	–
CC(C)COC[C@@H](C)[C@H]1CC[C@H]2[C@@H](OC(=O)c3ccc(O)cc3)CCC[C@]12C [Compound 3k]	–	–	–	> 10 µM	>100 µM	–	32.1 ± 3.2	7.3 ± 1.9%	3.8 ± 0.4 µM	10.3 ± 1.1 µM	–	–	> 20 µM	6.2 ± 1.1 µM	5.8 ± 0.3	–	–
